The values that follow are results of earlier work, collected in patent publication US7026316B2, “Dipeptidyl peptidase inhibitors for the treatment or prevention of diabetes” (Merck & Co., Inc., priority 2001, dated 2006).

One data set concerns rats. The conditions noted are these: survival doubled from day 7 to day 14.
Another data set has as its system mouse. The conditions noted are these: cyclophosphamide-induced neutropenia.
The next data set addresses DP-IV (Homo sapiens, UniProt P27487).

Chain of DP-IV (P27487 whole entry): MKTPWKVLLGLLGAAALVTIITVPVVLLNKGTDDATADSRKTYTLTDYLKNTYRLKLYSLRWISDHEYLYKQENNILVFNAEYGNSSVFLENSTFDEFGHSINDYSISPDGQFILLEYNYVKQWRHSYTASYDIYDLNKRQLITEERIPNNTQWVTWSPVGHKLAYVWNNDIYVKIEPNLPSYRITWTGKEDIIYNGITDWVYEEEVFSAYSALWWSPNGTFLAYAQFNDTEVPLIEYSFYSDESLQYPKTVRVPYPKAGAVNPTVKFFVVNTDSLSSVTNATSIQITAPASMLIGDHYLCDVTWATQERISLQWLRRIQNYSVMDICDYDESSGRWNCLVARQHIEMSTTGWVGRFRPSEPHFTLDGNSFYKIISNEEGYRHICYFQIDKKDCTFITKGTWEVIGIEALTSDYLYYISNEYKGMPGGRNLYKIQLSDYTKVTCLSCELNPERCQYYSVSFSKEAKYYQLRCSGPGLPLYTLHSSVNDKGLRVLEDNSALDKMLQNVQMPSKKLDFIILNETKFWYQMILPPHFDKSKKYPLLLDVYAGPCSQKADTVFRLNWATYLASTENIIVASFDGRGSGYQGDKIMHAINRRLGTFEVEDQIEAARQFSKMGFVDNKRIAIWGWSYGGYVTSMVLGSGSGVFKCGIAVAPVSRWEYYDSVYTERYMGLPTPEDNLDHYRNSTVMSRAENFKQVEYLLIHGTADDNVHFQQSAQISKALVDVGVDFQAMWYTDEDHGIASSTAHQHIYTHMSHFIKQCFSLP

In the case of `CC(C)N1CCC(c2ccccc2)(c2ccccc2)CC1` [Prodipine, Pro-Pro-diphenyl-phosphonate], the cardiac allograft survival in the data set on rats is 14 day.

Turning to `CC(C)[C@H](N)C(=O)N1CCC[C@H]1B(O)O` [Val-Boro-Pro], the hematopoiesis result in the data set with mouse is “stimulated hematopoiesis”.

`CC[C@H](C)[C@H](N)C(=O)N1CCC[C@H]1C(=O)N[C@H](C(=O)O)[C@@H](C)CC` [diprotin A]: at DP-IV, the “degradation of GRH in plasma to GRH[3-44]” value is “prevented”.
